How the values were obtained:
human orexin 1 receptors [1] = target: T1, human orexin 1 receptors (Homo sapiens, UniProt O43613); assay: Radioligand binding assay ([3H]-SB649868 competition), hOx1R; conditions: competition with about 1 nM [3H]-SB649868; CHO or HEK cell membranes expressing human orexin 1 receptor
T1 sequence (O43613 1-425): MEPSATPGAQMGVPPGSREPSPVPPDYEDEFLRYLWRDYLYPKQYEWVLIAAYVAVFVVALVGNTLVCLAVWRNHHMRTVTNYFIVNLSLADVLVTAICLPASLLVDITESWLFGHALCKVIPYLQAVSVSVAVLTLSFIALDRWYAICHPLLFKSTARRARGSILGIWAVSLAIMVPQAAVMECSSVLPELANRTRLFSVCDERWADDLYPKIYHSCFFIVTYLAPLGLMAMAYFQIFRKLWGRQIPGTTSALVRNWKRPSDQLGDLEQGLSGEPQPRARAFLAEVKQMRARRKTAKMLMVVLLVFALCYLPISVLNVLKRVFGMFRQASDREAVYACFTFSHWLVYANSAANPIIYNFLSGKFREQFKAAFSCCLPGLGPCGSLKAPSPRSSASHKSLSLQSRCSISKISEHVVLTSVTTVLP
Protocol: (§1) The cell pellet was either stored at −80° C. or used directly. Before the experiments, cell membranes were re-suspended in binding assay buffer (10 mM HEPES, 0.5% (w/v) bovine serum albumin, pH 7.5) by homogenisation with a Polytron homogeniser at 50 Hz for 20 s. Cell membranes were also used as made available by commercial providers.
(§2) Bound radioactivity was measured, and data were analysed with the program XLFIT or Graphpad Prism. Protein concentration was determined according to the Bradford/BioRad Protein Assay Kit.
(§3) In competition experiments, cell homogenates (150 μl) were incubated in assay buffer (10 mM HEPES, pH 7.5, 0.5% (w/v) bovine serum albumin, 5 mM MgCl2, 1 mMCaCl2, and tween 0.05%) for 1 h at room temperature with about 1 nM of the radioligand [^3H]-SB649868, 66 Ci/mmole, 50 μl), and with various concentrations of compounds of the invention (50 μl) in triplicates; non-specific binding was determined in the presence of almorexant (10 μM). Reactions were terminated by vacuum filtration, 3 washes of ice cold wash buffer (Tris-HCl pH 7.4/10 mM, with NaCl 154 mM). Competition data is expressed in Table 2 as Kd [μM].

human orexin 2 receptors [2] = target: T2, human orexin 2 receptors (Homo sapiens, UniProt O43614); assay: Radioligand binding assay ([3H]-SB649868 competition), hOx2R; conditions: competition with about 1 nM [3H]-SB649868; CHO or HEK cell membranes expressing human orexin 2 receptor; read-out: binding hOx2R Kd
T2 sequence (O43614 1-444): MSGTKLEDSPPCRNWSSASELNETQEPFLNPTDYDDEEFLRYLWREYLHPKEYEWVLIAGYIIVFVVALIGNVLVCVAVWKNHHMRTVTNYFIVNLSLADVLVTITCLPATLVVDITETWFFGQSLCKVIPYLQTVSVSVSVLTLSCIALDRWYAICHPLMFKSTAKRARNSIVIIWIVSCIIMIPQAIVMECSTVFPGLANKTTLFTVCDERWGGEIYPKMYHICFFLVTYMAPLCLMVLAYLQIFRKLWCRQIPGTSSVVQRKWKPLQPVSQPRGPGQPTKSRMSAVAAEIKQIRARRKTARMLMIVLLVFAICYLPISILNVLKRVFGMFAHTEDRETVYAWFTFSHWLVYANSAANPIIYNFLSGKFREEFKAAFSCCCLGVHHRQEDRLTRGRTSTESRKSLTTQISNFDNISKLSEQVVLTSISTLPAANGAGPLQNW
Protocol: as §1, §2
as §3, with “μM).” for “μM). Reactions were terminated by vacuum filtration, 3 washes of ice cold wash buffer (Tris-HCl pH 7.4/10 mM, with NaCl 154 mM). Competition data is expressed in Table 2 as Kd [μM].”

human orexin 2 receptors [3] = target: T2, human orexin 2 receptors; assay: Calcium accumulation in cells (FLIPR), hOx2R; format: cell-based; conditions: cells expressing human orexin 2 receptor; inhibition of orexin A-induced calcium accumulation; Cheng and Prusoff correction
human orexin 1 receptors [4] = target: T1, human orexin 1 receptors; assay: Calcium accumulation in cells (FLIPR), hOx1R; conditions: for inhibition at 10 µM: read-out: FLIPR hOx1R % inhibition value

Kd (human orexin 1 receptors [1]) [nM]	Kd (human orexin 2 receptors [2]) [nM]	Compound	Ki (human orexin 2 receptors [3]) [nM]	inhibition at 10 µM (human orexin 1 receptors [4]) [%]	Ki (human orexin 1 receptors [4]) [nM]
2020	66	Cc1cc(C)nc(N2CCC3(CCCN(Cc4ccccc4-c4nc(C)no4)C3=O)CC2)n1 [Example 1, 9-(4,6-dimethylpyrimidin-2-yl)-2-(2-(3-methyl-1,2,4-oxadiazol-5-yl)benzyl)-2,9-diazaspiro[5.5]undecan-1-one]	–	–	–
–	–	Cc1cncc(N2CCC3(CCCN(Cc4c[nH]c5ccccc45)C3=O)CC2)c1 [Example 58, 2-((1H-indol-3-yl)methyl)-9-(5-methylpyridin-3-yl)-2,9-diazaspiro[5.5]undecan-1-one]	156	31	–
–	–	COc1ccc(N2CCC3(CCCN(Cc4c[nH]c5ccccc45)C3=O)CC2)cc1OC [Example 59, 2-((1H-indol-3-yl)methyl)-9-(3,4-dimethoxyphenyl)-2,9-diazaspiro[5.5]undecan-1-one]	1380	15	–
–	–	COc1cccc(N2CCC3(CCCN(Cc4c[nH]c5ccccc45)C3=O)CC2)c1 [Example 60, 2-((1H-indol-3-yl)methyl)-9-(3-methoxyphenyl)-2,9-diazaspiro[5.5]undecan-1-one]	228	–	3110
–	–	COc1cncc(N2CCC3(CCCN(Cc4c[nH]c5ccccc45)C3=O)CC2)c1 [Example 62, 2-((1H-indol-3-yl)methyl)-9-(5-methoxypyridin-3-yl)-2,9-diazaspiro[5.5]undecan-1-one]	117	31	–
–	–	Cc1cc(N2CCC3(CCCN(Cc4c[nH]c5ccccc45)C3=O)CC2)cc(C)n1 [Example 63, 2-((1H-indol-3-yl)methyl)-9-(2,6-dimethylpyridin-4-yl)-2,9-diazaspiro[5.5]undecan-1-one]	1280	16	–
–	–	Cc1ccc(N2CCC3(CCCN(Cc4c[nH]c5ccccc45)C3=O)CC2)nc1C [Example 64, 2-((1H-indol-3-yl)methyl)-9-(5,6-dimethylpyridin-2-yl)-2,9-diazaspiro[5.5]undecan-1-one]	150	–	3370
–	–	Cc1cccnc1N1CCC2(CCCN(Cc3c[nH]c4ccccc34)C2=O)CC1 [Example 66, 2-((1H-indol-3-yl)methyl)-9-(3-methylpyridin-2-yl)-2,9-diazaspiro[5.5]undecan-1-one]	991	36	–
–	–	Cc1ccc(N2CCC3(CCCN(Cc4c[nH]c5ccccc45)C3=O)CC2)nc1 [Example 68, 2-((1H-indol-3-yl)methyl)-9-(5-methylpyridin-2-yl)-2,9-diazaspiro[5.5]undecan-1-one]	798	14	–
–	–	N#Cc1ccc(N2CCC3(CCCN(Cc4c[nH]c5ccccc45)C3=O)CC2)nc1 [Example 69, 6-(2-((1H-indol-3-yl)methyl)-1-oxo-2,9-diazaspiro[5.5]undecan-9-yl)nicotinonitrile]	320	31	–
–	–	Cc1nccc(N2CCC3(CCCN(Cc4c[nH]c5ccccc45)C3=O)CC2)n1 [Example 70, 2-((1H-indol-3-yl)methyl)-9-(2-methylpyrimidin-4-yl)-2,9-diazaspiro[5.5]undecan-1-one]	240	–	1810
–	–	Cc1cc(N2CCC3(CCCN(Cc4c[nH]c5ccccc45)C3=O)CC2)nc(C)n1 [Example 71, 2-((1H-indol-3-yl)methyl)-9-(2,6-dimethylpyrimidin-4-yl)-2,9-diazaspiro[5.5]undecan-1-one]	166	31	–
–	–	Cc1cnc(N2CCC3(CCCN(Cc4c[nH]c5ccccc45)C3=O)CC2)cn1 [Example 72, 2-((1H-indol-3-yl)methyl)-9-(5-methylpyrazin-2-yl)-2,9 diazaspiro[5.5]undecan-1-one]	280	16	–
–	–	COCc1cccc(N2CCC3(CCCN(Cc4c[nH]c5ccccc45)C3=O)CC2)n1 [Example 73, 2-((1H-indol-3-yl)methyl)-9-(6-(methoxymethyl)pyridin-2-yl)-2,9-diazaspiro[5.5]undecan-1-one]	639	30	–
–	–	N#Cc1cc(C#N)nc(N2CCC3(CCCN(Cc4c[nH]c5ccccc45)C3=O)CC2)n1 [Example 76, 2-(2-((1H-indol-3-yl)methyl)-1-oxo-2,9-diazaspiro[5.5]undecan-9-yl)pyrimidine-4,6-dicarbonitrile]	1130	< 10	–
–	–	N#Cc1cncc(N2CCC3(CCCN(Cc4c[nH]c5ccccc45)C3=O)CC2)n1 [Example 77, 6-(2-((1H-indol-3-yl)methyl)-1-oxo-2,9-diazaspiro[5.5]undecan-9-yl)pyrazine-2-carbonitrile]	173	–	3630
–	–	CCc1ccnc(N2CCC3(CCCN(Cc4c[nH]c5ccccc45)C3=O)CC2)n1 [Example 79, 2-((1H-indol-3-yl)methyl)-9-(4-ethylpyrimidin-2-yl)-2,9-diazaspiro[5.5]undecan-1-one]	126	–	708
–	–	Cc1nnc(N2CCC3(CCCN(Cc4c[nH]c5ccccc45)C3=O)CC2)s1 [Example 85, 2-((1H-indol-3-yl)methyl)-9-(5-methyl-1,3,4-thiadiazol-2-yl)-2,9-diazaspiro[5.5]undecan-1-one]	664	42	–
–	–	Cc1cnc(C)c(N2CCC3(CCCN(Cc4c[nH]c5ccccc45)C3=O)CC2)n1 [Example 86, 2-((1H-indol-3-yl)methyl)-9-(3,6-dimethylpyrazin-2-yl)-2,9-diazaspiro[5.5]undecan-1-one]	545	22	–
–	–	COc1cc(N2CCC3(CCCN(Cc4c[nH]c5ccccc45)C3=O)CC2)ncn1 [Example 87, 2-((1H-indol-3-yl)methyl)-9-(6-methoxypyrimidin-4-yl)-2,9-diazaspiro[5.5]undecan-1-one]	351	20	–
–	–	O=C1N(Cc2c[nH]c3ccccc23)CCCC12CCN(c1ccc(C(F)(F)F)cn1)CC2 [Example 89, 2-((1H-indol-3-yl)methyl)-9-(5-(trifluoromethyl)pyridin-2-yl)-2,9-diazaspiro[5.5]undecan-1-one]	426	18	–
–	–	Cc1ccnc(N2CCC3(CCCC(=O)N3Cc3ccccc3-c3nc(C)no3)CC2)n1 [Example 99, 1-(2-(3-methyl-1,2,4-oxadiazol-5-yl)benzyl)-9-(4-methylpyrimidin-2-yl)-1,9-diazaspiro[5.5]undecan-2-one]	614	12	–
–	–	COCc1cccc(CN2CCCC3(CCN(c4nc(C)cc(C)n4)CC3)C2=O)c1 [Example 125, 9-(4,6-dimethylpyrimidin-2-yl)-2-(3-(methoxymethyl)benzyl)-2,9-diazaspiro[5.5]undecan-1-one]	177	22	–
–	–	COCc1ccccc1CN1CCCC2(CCN(c3nc(C)cc(C)n3)CC2)C1=O [Example 126, 9-(4,6-dimethylpyrimidin-2-yl)-2-(2-(methoxymethyl)benzyl)-2,9-diazaspiro[5.5]undecan-1-one]	140	31	–
–	–	COCc1cccc(CN2CCCC3(CCN(c4nc(C)cc(OC)n4)CC3)C2=O)c1 [Example 127, 9-(4-methoxy-6-methylpyrimidin-2-yl)-2-(3-(methoxymethyl)benzyl)-2,9-diazaspiro[5.5]undecan-1-one]	100	–	2110
